# From PubChem BioAssay AID1259407 (Chemical Carcinogenesis Research Information System (CCRIS), 2018)
# Calls of active or inactive are those of the source. The rule behind the calls is not given here.
# System: CCRIS mutagenicity, Ames/micronucleus/aberration tests
# Experiment: CCRIS mutagenicity studies
compound,measurement,setting,value
CC1=CC(=O)c2ccccc2C1=O,mutagenic call,"Test System: AMES SALMONELLA TYPHIMURIUM, Strain/Indicator: TA97, Metabolic Activation: NONE, Method: PREINCUBATION",active; positive
same,mutagenic call,"Test System: AMES SALMONELLA TYPHIMURIUM, Strain/Indicator: TA97, Metabolic Activation: RAT, LIVER, S-9, PHENOBARBITAL AND 5,6-BENZOFLAVONE, Method: PREINCUBATION",inactive; negative
same,mutagenic call,"Test System: AMES SALMONELLA TYPHIMURIUM, Strain/Indicator: TA97A, Metabolic Activation: NONE, Method: PREINCUBATION",inactive; negative
same,mutagenic call,"Test System: AMES SALMONELLA TYPHIMURIUM, Strain/Indicator: TA98, Metabolic Activation: NONE, Method: PREINCUBATION",inactive; negative
same,mutagenic call,"Test System: AMES SALMONELLA TYPHIMURIUM, Strain/Indicator: TA98, Metabolic Activation: NONE, Method: SPIRAL ASSAY",inactive; negative
same,mutagenic call,"Test System: AMES SALMONELLA TYPHIMURIUM, Strain/Indicator: TA98, Metabolic Activation: NONE, Method: STANDARD PLATE",inactive; negative
same,mutagenic call,"Test System: AMES SALMONELLA TYPHIMURIUM, Strain/Indicator: TA98, Metabolic Activation: RAT, LIVER, S-9, AROCLOR 1254, Method: SPIRAL ASSAY",inactive; negative
same,mutagenic call,"Test System: AMES SALMONELLA TYPHIMURIUM, Strain/Indicator: TA98, Metabolic Activation: RAT, LIVER, S-9, AROCLOR 1254, Method: STANDARD PLATE",inactive; negative
same,mutagenic call,"Test System: AMES SALMONELLA TYPHIMURIUM, Strain/Indicator: TA98, Metabolic Activation: RAT, LIVER, S-9, PHENOBARBITAL AND 5,6-BENZOFLAVONE, Method: PREINCUBATION",active; positive
same,mutagenic call,"Test System: AMES SALMONELLA TYPHIMURIUM, Strain/Indicator: TA100, Metabolic Activation: NONE, Method: SPIRAL ASSAY",inactive; negative
same,mutagenic call,"Test System: AMES SALMONELLA TYPHIMURIUM, Strain/Indicator: TA100, Metabolic Activation: NONE, Method: STANDARD PLATE",inactive; negative
same,mutagenic call,"Test System: AMES SALMONELLA TYPHIMURIUM, Strain/Indicator: TA100, Metabolic Activation: RAT, LIVER, S-9, AROCLOR 1254, Method: SPIRAL ASSAY",inactive; negative
same,mutagenic call,"Test System: AMES SALMONELLA TYPHIMURIUM, Strain/Indicator: TA100, Metabolic Activation: RAT, LIVER, S-9, AROCLOR 1254, Method: STANDARD PLATE",inactive; negative
same,mutagenic call,"Test System: AMES SALMONELLA TYPHIMURIUM, Strain/Indicator: TA100, Metabolic Activation: RAT, LIVER, S-9, PHENOBARBITAL AND 5,6-BENZOFLAVONE, Method: PREINCUBATION",inactive; negative
same,mutagenic call,"Test System: AMES SALMONELLA TYPHIMURIUM, Strain/Indicator: TA102, Metabolic Activation: NONE, Method: PREINCUBATION",inactive; negative
same,mutagenic call,"Test System: AMES SALMONELLA TYPHIMURIUM, Strain/Indicator: TA102, Metabolic Activation: NONE, Method: STANDARD PLATE",inactive; negative
same,mutagenic call,"Test System: AMES SALMONELLA TYPHIMURIUM, Strain/Indicator: TA102, Metabolic Activation: RAT, LIVER, S-9, PHENOBARBITAL AND 5,6-BENZOFLAVONE, Method: PREINCUBATION",inactive; negative
same,mutagenic call,"Test System: AMES SALMONELLA TYPHIMURIUM, Strain/Indicator: TA104, Metabolic Activation: RAT, LIVER, S-9, PHENOBARBITAL AND 5,6-BENZOFLAVONE, Method: PREINCUBATION",inactive; negative
same,mutagenic call,"Test System: AMES SALMONELLA TYPHIMURIUM, Strain/Indicator: TA1535, Metabolic Activation: NONE, Method: PREINCUBATION",inactive; negative
same,mutagenic call,"Test System: AMES SALMONELLA TYPHIMURIUM, Strain/Indicator: TA1535, Metabolic Activation: NONE, Method: SPIRAL ASSAY",inactive; negative
same,mutagenic call,"Test System: AMES SALMONELLA TYPHIMURIUM, Strain/Indicator: TA1535, Metabolic Activation: NONE, Method: STANDARD PLATE",inactive; negative
same,mutagenic call,"Test System: AMES SALMONELLA TYPHIMURIUM, Strain/Indicator: TA1535, Metabolic Activation: RAT, LIVER, S-9, AROCLOR 1254, Method: SPIRAL ASSAY",inactive; negative
same,mutagenic call,"Test System: AMES SALMONELLA TYPHIMURIUM, Strain/Indicator: TA1535, Metabolic Activation: RAT, LIVER, S-9, AROCLOR 1254, Method: STANDARD PLATE",inactive; negative
same,mutagenic call,"Test System: AMES SALMONELLA TYPHIMURIUM, Strain/Indicator: TA1535, Metabolic Activation: RAT, LIVER, S-9, PHENOBARBITAL AND 5,6-BENZOFLAVONE, Method: PREINCUBATION",inactive; negative
same,mutagenic call,"Test System: AMES SALMONELLA TYPHIMURIUM, Strain/Indicator: TA1537, Metabolic Activation: NONE, Method: PREINCUBATION",inactive; negative
same,mutagenic call,"Test System: AMES SALMONELLA TYPHIMURIUM, Strain/Indicator: TA1537, Metabolic Activation: NONE, Method: SPIRAL ASSAY",inactive; negative
same,mutagenic call,"Test System: AMES SALMONELLA TYPHIMURIUM, Strain/Indicator: TA1537, Metabolic Activation: NONE, Method: STANDARD PLATE",inactive; negative
same,mutagenic call,"Test System: AMES SALMONELLA TYPHIMURIUM, Strain/Indicator: TA1537, Metabolic Activation: RAT, LIVER, S-9, AROCLOR 1254, Method: SPIRAL ASSAY",inactive; negative
same,mutagenic call,"Test System: AMES SALMONELLA TYPHIMURIUM, Strain/Indicator: TA1537, Metabolic Activation: RAT, LIVER, S-9, AROCLOR 1254, Method: STANDARD PLATE",inactive; negative
same,mutagenic call,"Test System: AMES SALMONELLA TYPHIMURIUM, Strain/Indicator: TA1537, Metabolic Activation: RAT, LIVER, S-9, PHENOBARBITAL AND 5,6-BENZOFLAVONE, Method: PREINCUBATION",inactive; negative
same,mutagenic call,"Test System: AMES SALMONELLA TYPHIMURIUM, Strain/Indicator: TA1538, Metabolic Activation: NONE, Method: PREINCUBATION",inactive; negative
same,mutagenic call,"Test System: AMES SALMONELLA TYPHIMURIUM, Strain/Indicator: TA1538, Metabolic Activation: RAT, LIVER, S-9, PHENOBARBITAL AND 5,6-BENZOFLAVONE, Method: PREINCUBATION",inactive; negative
same,mutagenic call,"Test System: AMES SALMONELLA TYPHIMURIUM, Strain/Indicator: TA2637, Metabolic Activation: NONE, Method: PREINCUBATION",active; positive
same,mutagenic call,"Test System: AMES SALMONELLA TYPHIMURIUM, Strain/Indicator: TA2637, Metabolic Activation: RAT, LIVER, S-9, PHENOBARBITAL AND 5,6-BENZOFLAVONE, Method: PREINCUBATION",active; positive
same,mutagenic call,"Test System: AMES SALMONELLA TYPHIMURIUM, Strain/Indicator: TA2638, Metabolic Activation: NONE, Method: STANDARD PLATE",inactive; negative
same,mutagenic call,"Test System: E. COLI, Strain/Indicator: IC202, Metabolic Activation: NONE, Method: STANDARD PLATE",active; positive
same,mutagenic call,"Test System: E. COLI, Strain/Indicator: IC203, Metabolic Activation: NONE, Method: STANDARD PLATE",active; positive
same,mutagenic call,"Test System: E. COLI, Strain/Indicator: IC5059, Metabolic Activation: NONE, Method: STANDARD PLATE",inactive; negative
same,mutagenic call,"Test System: E. COLI, Strain/Indicator: IC5064, Metabolic Activation: NONE, Method: STANDARD PLATE",inactive; negative
same,mutagenic call,"Test System: E. COLI, Strain/Indicator: IC5184, Metabolic Activation: NONE, Method: STANDARD PLATE",inactive; negative
same,mutagenic call,"Test System: E. COLI, Strain/Indicator: IC5185, Metabolic Activation: NONE, Method: STANDARD PLATE",inactive; negative
same,mutagenic call,"Test System: E. COLI, Strain/Indicator: WP2 (PKM101), Metabolic Activation: NONE, Method: STANDARD PLATE",inactive; negative
same,mutagenic call,"Test System: E. COLI, Strain/Indicator: WP2 UVRA (PKM101), Metabolic Activation: NONE, Method: STANDARD PLATE",inactive; negative
